Test results reported in ChEMBL document CHEMBL1201862, “PubChem BioAssay data set” (2004).
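In this assay, cells in 96-well plates receive the compound at five concentrations for 48 hours. Endpoints are linearly interpolated between the surrounding concentrations. GI50 is the concentration that inhibits growth by half.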 Activity calls are given as the source filed them. No stated cut-off is given here; in the data, active = GI50 up to about 1.1 µM and inactive = higher.

Columns and labels:
Test in all cases: NCI anticancer screen, dose series, 48 h
786-0 = test system: 786-0
ACHN = test system: ACHN
CAKI-1 = test system: CAKI-1
CCRF-CEM = test system: CCRF-CEM
COLO 205 = test system: COLO 205
EKVX = test system: EKVX
HCT-116 = test system: HCT-116
HT-29 = test system: HT-29
KM12 = test system: KM12
MCF7 = test system: MCF7
NCI-H460 = test system: NCI-H460
OVCAR-4 = test system: OVCAR-4
RXF 393 = test system: RXF 393
SF-539 = test system: SF-539
U-251 = test system: U-251
UACC-62 = test system: UACC-62
A498 = test system: A498
LOX IMVI = test system: LOX IMVI
Malme-3M = test system: Malme-3M
TK-10 = test system: TK-10

Row | Compound | GI50 (786-0) | GI50 (ACHN) | GI50 (CAKI-1) | GI50 (CCRF-CEM) | GI50 (COLO 205) | GI50 (EKVX) | GI50 (HCT-116) | GI50 (HT-29) | GI50 (KM12) | GI50 (MCF7) | GI50 (NCI-H460) | GI50 (OVCAR-4) | GI50 (RXF 393) | GI50 (SF-539) | GI50 (U-251) | GI50 (UACC-62) | GI50 (A498) | GI50 (LOX IMVI) | GI50 (Malme-3M) | GI50 (TK-10)
1 | NC(CCC(=O)NC(CSC(=O)N(O)c1ccc(Cl)cc1)C(=O)NCC(=O)O)C(=O)O (stereo not drawn) | > 0.5 µM (active) | > 0.5 µM (active) | > 0.5 µM (active) | > 0.5 µM (active) | > 0.5 µM (active) | > 0.5 µM (active) | > 0.5 µM (active) | > 0.5 µM (active) | > 0.5 µM (active) | > 0.5 µM (active) | > 0.5 µM (active) | > 0.5 µM (active) | > 0.5 µM (active) | > 0.5 µM (active) | > 0.5 µM (active) | > 0.5 µM (active) |  |  |  | 
2 | CCCCCC(=O)CCCCCCCC(O)CC(=O)OCC (stereo not drawn) | > 100 µM (inactive) | > 100 µM (inactive) | > 100 µM (inactive) | > 100 µM (inactive) |  |  | > 100 µM (inactive) | > 100 µM (inactive) | > 100 µM (inactive) | > 100 µM (inactive) | > 100 µM (inactive) |  |  | > 100 µM (inactive) | 64.3 µM (inactive) |  | > 100 µM (inactive) | > 100 µM (inactive) | > 100 µM (inactive) | > 100 µM (inactive)
3 | CN(C)c1ccc(/C(Br)=C2\OC(=O)c3ccccc32)cc1 | > 100 µM (inactive) | > 100 µM (inactive) | > 100 µM (inactive) | 51.4 µM (inactive) | 56.1 µM (inactive) | > 100 µM (inactive) | > 100 µM (inactive) | 42.3 µM (inactive) | 39.2 µM (inactive) | 0.759 µM (active) | > 100 µM (inactive) | > 100 µM (inactive) |  | > 100 µM (inactive) | > 100 µM (inactive) | > 100 µM (inactive) | > 100 µM (inactive) | > 100 µM (inactive) | 67.1 µM (inactive) | > 100 µM (inactive)
4 | OCCN(C1=NCCN1)/[N+](=C/c1ccc(Cl)cc1)[CH-]c1ccc(Cl)cc1 | > 100 µM (inactive) | > 100 µM (inactive) | > 100 µM (inactive) | 61.8 µM (inactive) | 62.4 µM (inactive) | > 100 µM (inactive) | 95.5 µM (inactive) | 94.8 µM (inactive) | > 100 µM (inactive) | > 100 µM (inactive) | > 100 µM (inactive) | > 100 µM (inactive) | 15.5 µM (inactive) | > 100 µM (inactive) | > 100 µM (inactive) | > 100 µM (inactive) |  | 51.6 µM (inactive) | > 100 µM (inactive) | > 100 µM (inactive)
5 | c1ccc2nn(C3CCCCO3)nc2c1 (stereo not drawn) | > 100 µM (inactive) | > 100 µM (inactive) | > 100 µM (inactive) | > 100 µM (inactive) | > 100 µM (inactive) | > 100 µM (inactive) | > 100 µM (inactive) | > 100 µM (inactive) | > 100 µM (inactive) | > 100 µM (inactive) | > 100 µM (inactive) | > 100 µM (inactive) | > 100 µM (inactive) | > 100 µM (inactive) | > 100 µM (inactive) | > 100 µM (inactive) |  |  | > 100 µM (inactive) | > 100 µM (inactive)
6 | Cc1ccc([N+](=O)[O-])cc1S(=O)(=O)Nc1ccc(C2=NN(c3ccc([N+](=O)[O-])cc3[N+](=O)[O-])C(c3ccccc3O)C2)cc1 (stereo not drawn) | 39.8 µM (inactive) | 35.1 µM (inactive) | 33.8 µM (inactive) | 25 µM (inactive) | 32.4 µM (inactive) | 26 µM (inactive) | 29 µM (inactive) | 43.3 µM (inactive) | 37 µM (inactive) | 27.9 µM (inactive) |  | 31 µM (inactive) | 40.6 µM (inactive) | 55.5 µM (inactive) | 37.1 µM (inactive) |  |  | 42 µM (inactive) | 41.7 µM (inactive) | 43.7 µM (inactive)
7 | CCOC(=O)NNC(=O)C1CSC(c2ccccc2)N1C(C)=O (stereo not drawn) | > 100 µM (inactive) | > 100 µM (inactive) | > 100 µM (inactive) | > 100 µM (inactive) | > 100 µM (inactive) | > 100 µM (inactive) | > 100 µM (inactive) | > 100 µM (inactive) | > 100 µM (inactive) | > 100 µM (inactive) | > 100 µM (inactive) | > 100 µM (inactive) |  | > 100 µM (inactive) | > 100 µM (inactive) | > 100 µM (inactive) | > 100 µM (inactive) | > 100 µM (inactive) | > 100 µM (inactive) | > 100 µM (inactive)
8 | Brc1ccc(-c2nc(-c3ccc(Br)cc3)n(-c3ccccc3)n2)cc1 | > 100 µM (inactive) | > 100 µM (inactive) | > 100 µM (inactive) | 20.6 µM (inactive) | 27.2 µM (inactive) | 85.5 µM (inactive) | 38 µM (inactive) | 26.9 µM (inactive) | 49.5 µM (inactive) | > 100 µM (inactive) | > 100 µM (inactive) | > 100 µM (inactive) |  | > 100 µM (inactive) | > 100 µM (inactive) | > 100 µM (inactive) | > 100 µM (inactive) | > 100 µM (inactive) |  | > 100 µM (inactive)
9 | COc1cc(C(=O)O[C@@H]2[C@@H](OC(=O)c3cc(OC)c(OC)c(OC)c3)[C@@H](OC)O[C@@H]3CO[C@@H](c4ccccc4)O[C@@H]23)cc(OC)c1OC | > 100 µM (inactive) | > 100 µM (inactive) | > 100 µM (inactive) | > 100 µM (inactive) | > 100 µM (inactive) | > 100 µM (inactive) | > 100 µM (inactive) | > 100 µM (inactive) | > 100 µM (inactive) | > 100 µM (inactive) | > 100 µM (inactive) | > 100 µM (inactive) |  | > 100 µM (inactive) | > 100 µM (inactive) | > 100 µM (inactive) | > 100 µM (inactive) | > 100 µM (inactive) | > 100 µM (inactive) | > 100 µM (inactive)
10 | COc1c(OC)c(OC)c(C(=O)/C=C/c2ccccc2)c(OC)c1OC | 9.29 µM (inactive) | 11.7 µM (inactive) | 13.9 µM (inactive) | 1.96 µM (inactive) | 14.2 µM (inactive) | 13.9 µM (inactive) | 6.11 µM (inactive) | 4.47 µM (inactive) | 4.1 µM (inactive) | 5.82 µM (inactive) | 6.46 µM (inactive) | 5.97 µM (inactive) |  | 9.02 µM (inactive) | 7.46 µM (inactive) | 6.87 µM (inactive) | 4.28 µM (inactive) | 10 µM (inactive) | 10.1 µM (inactive) | 12.8 µM (inactive)
11 | CN1CCN(/C(N)=C(\C#N)C(=O)Nc2ccccc2)CC1 | > 100 µM (inactive) | > 100 µM (inactive) | > 100 µM (inactive) | > 100 µM (inactive) | > 100 µM (inactive) | > 100 µM (inactive) | > 100 µM (inactive) |  | > 100 µM (inactive) | > 100 µM (inactive) | > 100 µM (inactive) |  |  | > 100 µM (inactive) | > 100 µM (inactive) | > 100 µM (inactive) | > 100 µM (inactive) | > 100 µM (inactive) |  | 
12 | COc1ccc2[nH]cc(CCNC(=O)[C@H](Cc3ccc(O)cc3)NC(=O)[C@@H](NCC(F)(F)F)C(C)C)c2c1 | > 100 µM (inactive) | > 100 µM (inactive) |  | 39.7 µM (inactive) | 41.9 µM (inactive) | 99.8 µM (inactive) | 95.5 µM (inactive) | 52.5 µM (inactive) | > 100 µM (inactive) | 35.5 µM (inactive) | 48 µM (inactive) | 40 µM (inactive) | > 100 µM (inactive) | > 100 µM (inactive) | 74.1 µM (inactive) | > 100 µM (inactive) |  | 25.2 µM (inactive) | > 100 µM (inactive) | > 100 µM (inactive)
13 | Cc1ccc(NC(=O)c2cc3ccccc3c(/N=N\c3ccccc3O)c2O)c(C)c1 | 1.32 µM (inactive) | 1.88 µM (inactive) | 1.19 µM (inactive) | 0.818 µM (active) | 3.02 µM (inactive) | 2.75 µM (inactive) | 0.664 µM (active) | 3.13 µM (inactive) | 1.45 µM (inactive) | 2.16 µM (inactive) | 0.44 µM (active) | 1.63 µM (inactive) | 3.67 µM (inactive) |  |  |  |  |  | 0.809 µM (active) | 5.31 µM (inactive)
14 | NCCCCNCCCN1CCOC1=O | > 100 µM (inactive) | > 100 µM (inactive) | > 100 µM (inactive) | > 100 µM (inactive) | > 100 µM (inactive) | > 100 µM (inactive) | > 100 µM (inactive) | > 100 µM (inactive) | > 100 µM (inactive) | > 100 µM (inactive) | > 100 µM (inactive) |  |  | > 100 µM (inactive) | > 100 µM (inactive) | > 100 µM (inactive) | > 100 µM (inactive) | > 100 µM (inactive) | > 100 µM (inactive) | 70.8 µM (inactive)
15 | OCC1C2CCC3(OCCO3)C12 (stereo not drawn) | > 100 µM (inactive) | > 100 µM (inactive) | > 100 µM (inactive) | > 100 µM (inactive) | > 100 µM (inactive) | > 100 µM (inactive) | > 100 µM (inactive) | > 100 µM (inactive) | > 100 µM (inactive) | > 100 µM (inactive) | > 100 µM (inactive) | > 100 µM (inactive) | > 100 µM (inactive) | > 100 µM (inactive) | > 100 µM (inactive) | 17.6 µM (inactive) |  | > 100 µM (inactive) | 57.3 µM (inactive) | > 100 µM (inactive)
16 | COc1ccc(OC)c(C#Cc2ccc(OC)c(C(=O)NCCc3ccc(F)cc3)c2)c1 | > 100 µM (inactive) | > 100 µM (inactive) | > 100 µM (inactive) |  | 5.22 µM (inactive) | > 100 µM (inactive) |  | 3.17 µM (inactive) | 4.13 µM (inactive) | 6.5 µM (inactive) | 5.09 µM (inactive) | 6.32 µM (inactive) |  |  | 6.07 µM (inactive) |  | 9.84 µM (inactive) | > 100 µM (inactive) |  | > 100 µM (inactive)
